Results published in ChEMBL document CHEMBL3832027, “DailyMed|setid=517fbb02-8793-4647-83c7-25a91be49622 | LEVITRA - vardenafil hydrochloride tablet, film coated|PD-Rx Pharmaceuticals, Inc”.

Tests used:
[1] = Evaluation of pharmacokinetic parameters for Vardenafil evaluated following single oral administration of Vardenafil to healthy male volunteers.; format: ADME, organism-based; settings: human, in vivo, dose 20 mg, dosed compound id 28, dosed compound name VARDENAFIL HYDROCHLORIDE, gender male, regimen Single dose, tissue Plasma
[2] = system: Homo sapiens; assay: Mean steady-state volume of distribution (Vss) for Vardenafil following oral doses of Vardenafil.; format: ADME, organism-based; settings: in vivo, dose 20 mg, dosed compound id 28, dosed compound name VARDENAFIL HYDROCHLORIDE, gender male, regimen Multiple dose, tissue Plasma

Work on `CCCc1nc(C)c2c(=O)nc(-c3cc(S(=O)(=O)N4CCN(CC)CC4)ccc3OCC)[nH]n12.Cl` [VARDENAFIL HYDROCHLORIDE] yielded a Tmax ([1]; dietary status Fasting) of 0.5 to 2 h, a half-life [1] of 4 to 5 h and a Vss [2] of 208 L.
